Reference: patent publication US12503432B2, “Ionizable lipids for nucleic acid delivery” (Global Life Sciences Solutions Canada ULC, priority 2019, dated 2025)

Legend:
[1] = LNP characterization: size and PDI by dynamic light scattering, mRNA encapsulation efficiency by RiboGreen assay; type: physicochemical
Experimental: Particle sizes and “polydispersity index” (PDI) of the lipid particle were measured by dynamic light scattering (DLS). PDI indicates the width of the particle distribution. This is a parameter calculated from a cumulative analysis of the (DLS)-measured intensity autocorrelation function assuming a single particle size mode and a single exponential fit to the autocorrelation function. […] The particles produced by mechanical micromixers such as the NanoAssemblr® Spark™ and NanoAssemblr® Benchtop (Precision NanoSystems Inc.) are substantially homogeneous in size assuming all other variables are neutral. A lower PDI indicates a more homogenous population of lipid particles. The Spark™ instrument is used in a screening setting to identify the lead compositions. Once the composition is selected, the lipid particle can be fine-tuned using the NanoAssemblr® Benchtop. Once the process parameters Flow Rate Ratio and Total Flow Rate is identified for the specific nanoparticle composition, the nanoparticle technology can be scaled up using the same process parameter values.
Lipid particles were also manufactured by a larger microfluidic mixer instrument, the NanoAssemblr® Ignite™ for testing. Briefly, 350 μL of mRNA was diluted using 100 mM sodium acetate buffer to the required concentration of 0.2 to 0.3 mg/mL. Lipid particle samples were then prepared by running both fluids, namely, nucleic acids in aqueous solvent and Lipid Mix in ethanol at a flow ratio of 3:1 and at a total flow rate of 12 ml/min in the microfluidic mixer. Following mixing in the microfluidic device, the post cartridge lipid nucleic acid particle sample was diluted into RNAse free tubes containing three to 40 volumes of phosphate buffered saline (PBS), pH 7.4. Ethanol was finally removed through dialysis in PBS, pH 7, or using Amicon™ centrifugal filters (Millipore, USA) at 3000 RPM, or using TFF systems. Once the required concentration was achieved, the lipid nucleic acid particles were filter sterilized using 0.2 μm filters in aseptic conditions. Final encapsulation efficiency was measured by the Ribogreen™ assay. Quant-iT™ RiboGreen® RNA Reagent and Kit (Invitrogen) following manufacturer directions.
Messenger RNA or plasmid nucleic acid therapeutic (NAT) as described below, was diluted using sodium acetate buffer to the required concentration. Lipid nucleic acid particle (LNAP) samples were then prepared by running both fluids using the NanoAssemblr® Spark instrument. Briefly, […] of nucleic acids in 100 mM sodium acetate buffer in a total volume of 32 μL was mixed with 16 μL of 37.5 mM lipid mix solution as required by the N/P ratios (4, 6, or 10 in illustrated examples). The microfluidically mixed lipid nucleic acid particles (LNAP) made in the instrument were immediately diluted down with 48 μL Ca++ and Mg++ free 1× PBS at pH 7.4 in the aqueous output well. These LNAP were immediately collected into microcentrifuge tubes containing 96 μL of the same buffer at pH 7.4. Encapsulation efficiency was measured by a modified Ribogreen™ assay (Quanti-iT RiboGreen™ RNA assay kit, Fisher). This information was used to establish the desired dosage.
After the lipid particles were made as described in Example 17, particle size (hydrodynamic diameter of the particles) was determined by Dynamic Light Scattering (DLS) using a ZetaSizer™ Nano ZS™ (Malvern Instruments, UK). He/Ne laser of 633 nm wavelength was used as the light source. Data were measured from the scattered intensity data conducted in backscattering detection mode (measurement angle=173). Measurements were an average of 10 runs of two cycles each per sample. Z-Average size was reported as the particle size, and is defined as the harmonic intensity averaged particle diameter. These LNP characteristics, as well as the results of the mRNA encapsulation efficiency for various Lipid Mixes are also described in the application are shown in Tables 4, 5 and 6. […]

[2] = system: primary human T cells; test: EPO mRNA LNP delivery to primary human T cells, Quantikine IVD Human Epo ELISA; type: cell-based
Experimental: Reagents were acquired from Quantikine, Minneapolis, MN. The assay was performed as directed on the Quantikine® IVD® ELISA Human Erythropoietin Immunoassay protocol in the package insert. Briefly; primary human T cells were isolated from fresh whole blood using a negative selection protocol and activated using a triple activator. Seven days post-activation, T cells were dosed with mRNA LNPs encoding EPO at […] mRNA per 500,000 cells and N/P 10. After 48 h of exposure, the T cells were harvested and lysed for cytosolic EPO and media supernatant was sampled for secreted EPO. Quantikine® Human Serum Controls were used.

[3] = 5-moU EPO encoded LNPs, IL:DSPC:cholesterol:DMG-PEG (50:10:38.5:1.5), N/P 6
[4] = OVA encoded LNPs, payload 5-moU OVA, LM02, N/P 8
[5] = OVA encoded LNPs, payload WT OVA, LM02, N/P 8
[6] = Table 4 LNPs, payload and lipid mix not stated

With CCCCC/C=C\C/C=C\CCCCCCCCC(CCCCCCCC/C=C\C/C=C\CCCCC)OC(=O)CCCN(C)C [MC3, DLin-MC3-DMA, reference compound] as the compound, how does the “Diameter (Z. ave, nm)” value [1, 3] read?
Its value is 65.1 nm.

What about the “Encapsulation Efficiency (%)” value [1, 3] of the same compound?
The value was 98.8%.

What about the “Polydispersity Index (PDI)” value [1, 3] of the same compound?
Its value is 0.04.

What about the “Diameter (Z. ave, nm)” value [1, 4] of the same compound?
The value was 65.8 nm.

What about the “Encapsulation Efficiency (%)” value [1, 4] of the same compound?
Its value is 95.2%.

And the “Polydispersity Index (PDI)” value [1, 4]?
Its value is 0.07.

And the “Diameter (Z. ave, nm)” value [1, 5]?
The value was 67.5 nm.

And the “Encapsulation Efficiency (%)” value [1, 5]?
The value was 95.4%.

And the “Polydispersity Index (PDI)” value [1, 5]?
Its value is 0.03.

What about the “Diameter (Z. ave, nm)” value [1, 6] of the same compound?
The value was 77.2 nm.

And the “Encapsulation Efficiency (%)” value [1, 6]?
Its value is 88.6%.

What about the “Polydispersity Index (PDI)” value [1, 6] of the same compound?
The value was 0.07.

And the “cytosolic EPO” value ([2]; T cell lysate, 48 h exposure, N/P 10, FIG. 5)?
The value was “no cytosolic EPO”.

And the “secreted EPO” value ([2]; media supernatant, 48 h exposure, N/P 10, FIG. 5)?
The value was “about 545 mlU/mL”.

And the “Fold increase in EPO concentration relative to MC3” value ([2]; primary human T cells, 48 hours)?
The value was 1.0.

And the “EPO concentration (mIU/mL), 48 hours” value ([2]; primary human T cells, 48 hours, EPO mRNA LNP, N/P 10)?
Its value is 545.2 mIU/mL.
